In ChEMBL document CHEMBL3885881, “DrugMatrix”:

Species: Rattus norvegicus
Test: DrugMatrix - Regimen: Daily Repeat
Assay type: toxicity, organism-based, Sprague-Dawley
Design: regimen Daily Repeat, gender Male, age 6-8 weeks
Conditions: in vivo, sc, route subcutaneous, […]; for ABSOLUTE BASOPHIL / ABSOLUTE EOSINOPHIL / ABSOLUTE LYMPHOCYTE / ABSOLUTE MONOCYTE / ABSOLUTE SEGMENTED NEUTROPHIL / BASOPHIL / EOSINOPHIL / ERYTHROCYTE COUNT / HEMATOCRIT / HEMOGLOBIN / LEUKOCYTE COUNT / LYMPHOCYTE / MEAN CORPUSCULAR HEMOGLOBIN / MEAN CORPUSCULAR HEMOGLOBIN CONCENTRATION / MEAN CORPUSCULAR VOLUME / MONOCYTE / NEUTROPHIL / NUCLEATED RED BLOOD CELLS / PLATELET COUNT: tissue Blood; for ALANINE AMINOTRANSFERASE / ALBUMIN / ALKALINE PHOSPHATASE / ASPARTATE AMINOTRANSFERASE / BLOOD UREA NITROGEN / CARBON DIOXIDE / CHLORIDE / CHOLESTEROL / CREATINE PHOSPHOKINASE / CREATININE / GLUCOSE / LACTATE DEHYDROGENASE / LIPASE / PHOSPHORUS / POTASSIUM / SODIUM / TOTAL BILIRUBIN / TOTAL PROTEIN / URIC ACID: tissue Plasma
[1] = 50 mg/kg, 120 h, dose level Low, time 5 day
[2] = 201 mg/kg, 72 h, dose level High, time 3 day
[3] = 201 mg/kg, 120 h, dose level High, time 5 day

In the case of `CCCCOC(=O)c1ccc(N)cc1` [BUTAMBEN], the “ABSOLUTE BASOPHIL” value [1] is reported as 0 CELLS/uL, the “ABSOLUTE EOSINOPHIL” value [1] is reported as 200.67 CELLS/uL and the “ABSOLUTE LYMPHOCYTE” value [1] is reported as 13363.67 CELLS/uL. The “ABSOLUTE MONOCYTE” value [1] was 123.33 CELLS/uL, the “ABSOLUTE SEGMENTED NEUTROPHIL” value [1] was 2512.33 CELLS/uL and the BASOPHIL [1] was 0%. For the same compound, the EOSINOPHIL [1] was 1.33%, the “ERYTHROCYTE COUNT” value [1] was 5.82 x10E6/uL and the HEMATOCRIT [1] was 36.47%. For the same compound, the HEMOGLOBIN [1] was 13.23 G/DL, the “LEUKOCYTE COUNT” value [1] was 16.2 x10E3/uL and the LYMPHOCYTE [1] was 82.33%. The “MEAN CORPUSCULAR HEMOGLOBIN” value [1] was 22.8 pg, the “MEAN CORPUSCULAR HEMOGLOBIN CONCENTRATION” value [1] was 36.3 G/DL and the “MEAN CORPUSCULAR VOLUME” value [1] was 62.77 fL. The MONOCYTE [1] was 0.67%, the NEUTROPHIL [1] was 15.67% and the “NUCLEATED RED BLOOD CELLS” value [1] was 0 /100WBC. The “PLATELET COUNT” value [1] was 1424.33 x10E3/uL, the “ALANINE AMINOTRANSFERASE” value [1] was 47.67 u/L and the ALBUMIN [1] was 4.3 G/DL. For the same compound, the “ALKALINE PHOSPHATASE” value [1] was 349 u/L, the “ASPARTATE AMINOTRANSFERASE” value [1] was 78.67 u/L and the “BLOOD UREA NITROGEN” value [1] was 19.67 mg/dL. For the same compound, the “CARBON DIOXIDE” value [1] was 23.67 mmol/L, the CHLORIDE [1] was 105.67 MEQ/L and the CHOLESTEROL [1] was 76.67 mg/dL. The “CREATINE PHOSPHOKINASE” value [1] was 340 u/L, the CREATININE [1] was 0.21 mg/dL and the GLUCOSE [1] was 179.67 mg/dL. The “LACTATE DEHYDROGENASE” value [1] was 100.67 u/L, the LIPASE [1] was 8.33 u/L and the PHOSPHORUS [1] was 12.87 mg/dL. The POTASSIUM [1] was 6.56 MEQ/L, the SODIUM [1] was 145.27 MEQ/L and the “TOTAL BILIRUBIN” value [1] was 0.23 mg/dL. For the same compound, the “TOTAL PROTEIN” value [1] was 6.03 G/DL, the “URIC ACID” value [1] was 1.9 mg/dL and the “ABSOLUTE BASOPHIL” value [2] was 0 CELLS/uL. The “ABSOLUTE EOSINOPHIL” value [2] was 70 CELLS/uL, the “ABSOLUTE LYMPHOCYTE” value [2] was 16456 CELLS/uL and the “ABSOLUTE MONOCYTE” value [2] was 124.67 CELLS/uL. For the same compound, the “ABSOLUTE SEGMENTED NEUTROPHIL” value [2] was 2816 CELLS/uL, the BASOPHIL [2] was 0% and the EOSINOPHIL [2] was 0.33%. For the same compound, the “ERYTHROCYTE COUNT” value [2] was 5.58 x10E6/uL, the HEMATOCRIT [2] was 36% and the HEMOGLOBIN [2] was 13.23 G/DL. For the same compound, the “LEUKOCYTE COUNT” value [2] was 19.47 x10E3/uL, the LYMPHOCYTE [2] was 84.67% and the “MEAN CORPUSCULAR HEMOGLOBIN” value [2] was 23.77 pg. The “MEAN CORPUSCULAR HEMOGLOBIN CONCENTRATION” value [2] was 36.8 G/DL, the “MEAN CORPUSCULAR VOLUME” value [2] was 64.57 fL and the MONOCYTE [2] was 0.67%. For the same compound, the NEUTROPHIL [2] was 14.33%, the “NUCLEATED RED BLOOD CELLS” value [2] was 0.67 /100WBC and the “PLATELET COUNT” value [2] was 1165.33 x10E3/uL. The “ALANINE AMINOTRANSFERASE” value [2] was 57 u/L, the ALBUMIN [2] was 4.07 G/DL and the “ALKALINE PHOSPHATASE” value [2] was 412 u/L. The “ASPARTATE AMINOTRANSFERASE” value [2] was 89.67 u/L, the “BLOOD UREA NITROGEN” value [2] was 16.33 mg/dL and the “CARBON DIOXIDE” value [2] was 27.67 mmol/L. The CHLORIDE [2] was 103 MEQ/L, the CHOLESTEROL [2] was 70.67 mg/dL and the “CREATINE PHOSPHOKINASE” value [2] was 345 u/L. The CREATININE [2] was 0.18 mg/dL, the GLUCOSE [2] was 160.33 mg/dL and the “LACTATE DEHYDROGENASE” value [2] was 218 u/L. The LIPASE [2] was 8.33 u/L, the PHOSPHORUS [2] was 12.83 mg/dL and the POTASSIUM [2] was 6.76 MEQ/L. The SODIUM [2] was 143.8 MEQ/L, the “TOTAL BILIRUBIN” value [2] was 0.23 mg/dL and the “TOTAL PROTEIN” value [2] was 5.8 G/DL. For the same compound, the “URIC ACID” value [2] was 1.53 mg/dL, the “ABSOLUTE BASOPHIL” value [3] was 0 CELLS/uL and the “ABSOLUTE EOSINOPHIL” value [3] was 338.33 CELLS/uL. The “ABSOLUTE LYMPHOCYTE” value [3] was 17074 CELLS/uL, the “ABSOLUTE MONOCYTE” value [3] was 209.67 CELLS/uL and the “ABSOLUTE SEGMENTED NEUTROPHIL” value [3] was 3344.67 CELLS/uL. The BASOPHIL [3] was 0%, the EOSINOPHIL [3] was 1.67% and the “ERYTHROCYTE COUNT” value [3] was 5.22 x10E6/uL. The HEMATOCRIT [3] was 33.53%, the HEMOGLOBIN [3] was 12.47 G/DL and the “LEUKOCYTE COUNT” value [3] was 20.97 x10E3/uL. For the same compound, the LYMPHOCYTE [3] was 81.33%, the “MEAN CORPUSCULAR HEMOGLOBIN” value [3] was 23.9 pg and the “MEAN CORPUSCULAR HEMOGLOBIN CONCENTRATION” value [3] was 37.17 G/DL. The “MEAN CORPUSCULAR VOLUME” value [3] was 64.37 fL, the MONOCYTE [3] was 1% and the NEUTROPHIL [3] was 16%. For the same compound, the “NUCLEATED RED BLOOD CELLS” value [3] was 0 /100WBC, the “PLATELET COUNT” value [3] was 1321.67 x10E3/uL and the “ALANINE AMINOTRANSFERASE” value [3] was 47 u/L. For the same compound, the ALBUMIN [3] was 4.17 G/DL, the “ALKALINE PHOSPHATASE” value [3] was 353 u/L and the “ASPARTATE AMINOTRANSFERASE” value [3] was 79.67 u/L. For the same compound, the “BLOOD UREA NITROGEN” value [3] was 18 mg/dL, the “CARBON DIOXIDE” value [3] was 26.67 mmol/L and the CHLORIDE [3] was 104.33 MEQ/L. The CHOLESTEROL [3] was 51 mg/dL, the “CREATINE PHOSPHOKINASE” value [3] was 415 u/L and the CREATININE [3] was 0.21 mg/dL. For the same compound, the GLUCOSE [3] was 163 mg/dL, the “LACTATE DEHYDROGENASE” value [3] was 103 u/L and the LIPASE [3] was 8 u/L. It also gave a PHOSPHORUS [3] of 12.37 mg/dL, a POTASSIUM [3] of 6.72 MEQ/L and an SODIUM [3] of 144.47 MEQ/L. For the same compound, the “TOTAL BILIRUBIN” value [3] was 0.37 mg/dL, the “TOTAL PROTEIN” value [3] was 6.07 G/DL and the “URIC ACID” value [3] was 1.93 mg/dL.
